One data set concerns Candida albicans FP622. Put plainly: Protective effect against fungi in experimental mice infection (Test 2). Conditions: sc, 336 h; Candida albicans FP622, inoculum 4.8 × 10^4 cfu/head; cyclophosphamide-immunosuppressed mice; subcutaneous, 1 h after challenge then twice a day for 2 days; survival 14 days, probit method. It is filed as in vivo, ICR strain. Here is the method:
(§1) Test 2 (Protective effect of FR109615 against fungi in experimental mice infection) (1) Test animal 4 Weeks old mice, ICR strain, each weighing 18-21 g. One group consists of 10 mice. (2) Test method 4 Days before challenge, the test mice intraperitoneally received a saline solution of cyclophosphamide (immunosuppressant) ([…]). Each pf pathogenic microorganisms suspended in saline were injected into mice via the lateral tail vein. One hour after challenge, a saline solution of FR109615 was subcutaneously injected into the mice. This treatment was repeated twice a day for 2 days from the next day after challenge.

Another data set relates to C. stellatoidea FP588. Described as above. It is filed as in vivo, ICR strain. Conditions: Candida albicans, sc, 336 h; C. stellatoidea FP588, inoculum 2.0 × 10^6 cfu/head; cyclophosphamide-immunosuppressed mice; subcutaneous, 1 h after challenge then twice a day for 2 days; survival 14 days, probit method. As to the method:
as §1

Data set [1] has as its system C. pseudotropicalis FP584. The description is as above. The data set is classed as in vivo, ICR strain. To be noted: Kluyveromyces marxianus, sc, 336 h; C. pseudotropicalis FP584, inoculum 2.0 × 10^7 cfu/head; cyclophosphamide-immunosuppressed mice; subcutaneous, 1 h after challenge then twice a day for 2 days; survival 14 days, probit method. As to the method: as §1

A further data set has as its system C. tropicalis 8001. The data set is described as above. The data set is classed as in vivo, ICR strain. Conditions: Candida tropicalis, sc, 336 h; C. tropicalis 8001, inoculum 5.6 × 10^4 cfu/head; cyclophosphamide-immunosuppressed mice; subcutaneous, 1 h after challenge then twice a day for 2 days; survival 14 days, probit method. As to the method: as §1
The test system of the next data set is C. krusei FP585. Described as above. It is filed as in vivo, ICR strain. To be noted: Pichia kudriavzevii, sc, 336 h; C. krusei FP585, inoculum 2.0 × 10^7 cfu/head; cyclophosphamide-immunosuppressed mice; subcutaneous, 1 h after challenge then twice a day for 2 days; survival 14 days, probit method. Here is the method:
as §1

For data set [2], the system named is Staphylococcus aureus Smith. Put plainly: Protective effect against bacteria in experimental mice infection (Test 3). The data set is classed as in vivo, ICR strain. To be noted: inoculum 2.5 × 10^8 cfu, 10 mg/kg subcutaneous once a day for 4 days, 11 days observation, all control mice died. As to the method:
Test 3 (Protective effect of FR109615 against bacteria in experimental mice infection)
4 Weeks old mice, ICR strain, each weighing 18-21 g. One group consists of 10 mice.
Pathogenic microorganism suspended in saline were injected into mice via the lateral tail vein. After challenge, a saline solution of FR109615 was subcutaneously injected into the mice (Dosage: 10 mg/kg) once a day for 4 days. […] All of the control mice (non-treatment group) died.

The next data set relates to ICR mice. The experiment in a line: Acute toxicity (Test 4). To be noted: female, single intravenous injection, 1 g/kg. The data set is classed as in vivo, 4 weeks old). Here is the method: The acute toxicity of FR109615 was determined to ICR mice (female, 4 weeks old) by a single intravenous injection.
In data set [3] the test system is pathogenic microorganisms, especially pathogenic fungi such as pathogenic yeast (e.g. Candida albicans). Put plainly: Antimicrobial activity against pathogenic microorganisms (general statement).
The subject of another data set is Candida utilis. Put plainly: Antimicrobial activity, micro-broth dilution method (Test 1). Conditions: Williopsis jadinii, E. MEM, 37° C., 20 hours, 5% CO2, read-out: MIC (minimum inhibitory concentration). The data set is classed as cell-based. As to the method:
(§2) Test 1 (Antimicrobial activity)
(§3) Antimicrobial activity of FR109615 was measured by a conventional micro-broth dilution method using 96 well multi-trays.
(§4) A suspension of the test microorganism (10^6 cells/ml) was prepared by diluting an overnight cultured broth of the organism with Eagle's minimum essential medium (E. MEM). A serially diluted solution of FR109615 in E. MEM (100 μl ) was added to a well of the multi-tray. To the well, the suspension of the test organism was added. The multi-trays were incubated at 37° C. for 20 hours in 5% CO2 atmosphere.

The test system of another data set is Mucor rouxianus. Described as above. The data set is classed as cell-based. To be noted: E. MEM, 37° C., 20 hours, 5% CO2, read-out: MIC (minimum inhibitory concentration). As to the method:
as §2, §3, §4

The subject of a further data set is Candida krusei. Described as above. It is filed as cell-based. To be noted: Pichia kudriavzevii, E. MEM, 37° C., 20 hours, 5% CO2, read-out: MIC (minimum inhibitory concentration). As to the method:
as §2, §3, §4

Data set [4] has as its system Tricophyton mentagrophytes. The data set is described as above. The data set is classed as cell-based. Conditions: E. MEM, 37° C., 20 hours, 5% CO2, read-out: MIC (minimum inhibitory concentration). Here is the method:
as §2, §3, §4

The test system of another data set is Candida albicans. The description is as above. To be noted: E. MEM, 37° C., 20 hours, 5% CO2, read-out: MIC (minimum inhibitory concentration). It is filed as cell-based. As to the method:
as §2, §3, §4

A short description of data set [5]: Solubility (physicochemical properties).

Converted amounts (≈) assume the structure as drawn.

With `N[C@H]1CCC[C@H]1C(=O)O` [FR109615, (1R, 2S)-2-aminocyclopentanecarboxylic], the 50% effective dose (ED50) was 0.87 mg/kg with Candida albicans FP622; 1.11 mg/kg in the data set on C. stellatoidea FP588; 2.38 mg/kg in data set [1]; 3.8 mg/kg in the data set on C. tropicalis 8001; 0.78 mg/kg with C. krusei FP585. The survival ratio in data set [2] amounted to 100%. In addition, the “acute toxicity, toxic symptom” value in the data set on ICR mice is “No toxic symptom was observed”. For the same compound, the antimicrobial activity entry in [3] is on record as “strong antimicrobial activity”. The MIC was determined as 32 µg/mL (≈ 248 µM) in the data set on Candida utilis; 500 µg/mL (≈ 3870 µM) with Mucor rouxianus; 8 µg/mL (≈ 61.9 µM) in the data set with Candida krusei; 250 µg/mL (≈ 1940 µM) in [4]; 16 µg/mL (≈ 124 µM) in the data set on Candida albicans. The Solubility result in data set [5] (Acetone) is reported as “Insoluble”; in data set [5] (Chloroform) it was “Insoluble”; in data set [5] (Ethanol), “Sparingly soluble”; in data set [5] (Ethyl acetate) it was “Insoluble”; in data set [5] (Methanol) it was “Sparingly soluble”; in data set [5] (Water) it was “Soluble”.

Values taken from patent US5514715A, “Antimicrobial agent, FR109615 and production thereof” (Fujisawa Pharmaceutical Co., Ltd., priority 1987, dated 1996).
